Tests used:
[1] = biological target: Sodium-dependent serotonin transporter (Rattus norvegicus, UniProt P31652); assay: Inhibition of [3H]5-HT uptake into rat synaptosomes by Serotonin transporter; format: functional, subcellular, Brain
[2] = biological target: Sodium-dependent dopamine transporter (Rattus norvegicus, UniProt P23977); assay: Inhibition of [3H]DA uptake at Dopamine transporter into rat nerve endings (synaptosomes); format: subcellular, Brain
[3] = biological target: Norepinephrine transporter (Rattus norvegicus, UniProt Q9WTR4); assay: Inhibition of norepinephrine transporter by inhibition of [3H]NE uptake into rat nerve endings (synaptosomes); format: subcellular, Brain
[4] = biological target: Monoamine transporters; serotonin & dopamine (Rattus norvegicus) (UniProt P31652+P23977); assay: Ratio of selective inhibition of dopamine(DA) to serotonin(5-HT) was evaluated; format: protein assay
Monoamine transporters; serotonin & dopamine (Rattus norvegicus), sequence (P23977 whole entry, looked up): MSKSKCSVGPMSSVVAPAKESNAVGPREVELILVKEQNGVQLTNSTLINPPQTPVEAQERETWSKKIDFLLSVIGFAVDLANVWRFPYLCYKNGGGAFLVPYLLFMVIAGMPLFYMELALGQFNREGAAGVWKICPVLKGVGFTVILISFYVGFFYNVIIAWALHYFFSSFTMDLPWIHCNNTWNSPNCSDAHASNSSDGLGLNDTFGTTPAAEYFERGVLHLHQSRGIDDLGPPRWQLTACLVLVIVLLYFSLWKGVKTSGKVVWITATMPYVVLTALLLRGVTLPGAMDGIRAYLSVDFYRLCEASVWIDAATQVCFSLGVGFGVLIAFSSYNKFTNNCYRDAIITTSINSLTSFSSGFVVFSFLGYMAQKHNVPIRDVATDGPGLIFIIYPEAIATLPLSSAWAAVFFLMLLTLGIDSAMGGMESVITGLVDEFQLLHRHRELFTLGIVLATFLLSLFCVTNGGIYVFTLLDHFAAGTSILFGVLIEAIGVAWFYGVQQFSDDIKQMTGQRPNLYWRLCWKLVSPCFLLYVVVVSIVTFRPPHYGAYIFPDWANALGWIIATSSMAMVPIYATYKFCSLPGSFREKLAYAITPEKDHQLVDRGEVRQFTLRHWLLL
Monoamine transporters; serotonin & dopamine (Rattus norvegicus), sequence (P31652 whole entry, looked up): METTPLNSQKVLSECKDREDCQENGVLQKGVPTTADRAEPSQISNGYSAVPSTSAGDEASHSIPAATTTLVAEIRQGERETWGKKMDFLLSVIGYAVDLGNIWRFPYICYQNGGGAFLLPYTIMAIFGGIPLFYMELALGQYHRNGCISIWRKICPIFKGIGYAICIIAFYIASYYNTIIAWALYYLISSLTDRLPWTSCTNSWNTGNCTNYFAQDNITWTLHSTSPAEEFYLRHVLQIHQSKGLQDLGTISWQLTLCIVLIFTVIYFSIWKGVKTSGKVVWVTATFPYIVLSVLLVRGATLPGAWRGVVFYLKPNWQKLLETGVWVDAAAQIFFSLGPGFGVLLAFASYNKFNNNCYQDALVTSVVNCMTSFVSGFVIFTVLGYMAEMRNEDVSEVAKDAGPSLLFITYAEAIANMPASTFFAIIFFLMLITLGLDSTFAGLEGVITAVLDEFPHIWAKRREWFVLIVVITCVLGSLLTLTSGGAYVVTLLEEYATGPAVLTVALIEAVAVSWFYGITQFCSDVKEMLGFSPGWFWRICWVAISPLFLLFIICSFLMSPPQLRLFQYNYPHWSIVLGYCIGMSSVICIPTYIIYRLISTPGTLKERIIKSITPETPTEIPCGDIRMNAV

Sodium-dependent dopamine transporter, sequence (P23977 whole entry): as the sequence (P23977 whole entry, looked up) above
Norepinephrine transporter, sequence (Q9WTR4 whole entry): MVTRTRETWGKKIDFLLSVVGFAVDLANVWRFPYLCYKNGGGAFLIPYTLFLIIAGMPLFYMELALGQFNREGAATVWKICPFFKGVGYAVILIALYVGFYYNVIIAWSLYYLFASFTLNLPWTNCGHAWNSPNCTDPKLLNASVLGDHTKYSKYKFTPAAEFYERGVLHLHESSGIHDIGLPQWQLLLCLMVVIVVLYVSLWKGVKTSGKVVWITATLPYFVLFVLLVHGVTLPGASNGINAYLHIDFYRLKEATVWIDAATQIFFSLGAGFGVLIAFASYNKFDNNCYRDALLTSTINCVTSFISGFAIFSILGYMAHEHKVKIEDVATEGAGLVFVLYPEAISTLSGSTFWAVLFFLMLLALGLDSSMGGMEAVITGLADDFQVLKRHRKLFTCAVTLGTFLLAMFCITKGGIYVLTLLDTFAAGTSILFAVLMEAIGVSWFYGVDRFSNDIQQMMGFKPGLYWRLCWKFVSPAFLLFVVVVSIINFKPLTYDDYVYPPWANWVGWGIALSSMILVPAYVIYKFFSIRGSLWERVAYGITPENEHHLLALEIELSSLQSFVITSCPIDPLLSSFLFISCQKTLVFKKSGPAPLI
Sodium-dependent serotonin transporter, sequence (P31652 whole entry): as the sequence (P31652 whole entry, looked up) above

Row | SMILES | Ki [1] [nM] | Ki [2] [nM] | Ki [3] [nM] | Ratio [4]
1 | CN1CC[C@@H](c2ccc(Cl)cc2)[C@H](C(=O)NCc2ccc(CNC(=O)c3ccc(Cl)cc3Cl)cc2)C1 | 139 |  |  | 
2 | CN1CC[C@@H](c2ccc(Cl)cc2)[C@H](C(=O)NCc2ccc(CNC(=O)c3ccc(C(F)(F)F)cc3)cc2)C1 | 334 | > 4000 | 651 | > 12
3 | COc1ccc(C(=O)NCc2ccc(CNC(=O)[C@@H]3CN(C)CC[C@H]3c3ccc(Cl)cc3)cc2)cc1 | 92 |  |  | 
4 | CN1CC[C@@H](c2ccc(Cl)cc2)[C@H](C(=O)NCc2ccc(CNC(=O)c3cccc(C(F)(F)F)c3)cc2)C1 | 35 | > 5000 | 508 | > 143
5 | CN1CC[C@@H](c2ccc(Cl)cc2)[C@H](C(=O)NCCCCCNC(=O)[C@@H]2CN(C)CC[C@H]2c2ccc(Cl)cc2)C1 | 1.2 | 1960 | 399 | 1630
6 | CN1CC[C@@H](c2ccc(Cl)cc2)[C@H](C(=O)NCc2ccc(CNC(=O)CCc3ccccc3)cc2)C1 | 67 | > 2000 | > 1000 | > 30
7 | Cc1ccc(C(=O)NCc2ccc(CNC(=O)[C@@H]3CN(C)CC[C@H]3c3ccc(Cl)cc3)cc2)cc1 | 195 | > 7000 | > 1000 | > 36
8 | CN1CC[C@@H](c2ccc(Cl)cc2)[C@H](C(=O)NCc2ccc(CNC(=O)[C@@H]3CN(C)CC[C@H]3c3ccc(Cl)cc3)cc2)C1 | 0.32 | 2270 | 74 | > 7000
9 | CN1CC[C@@H](c2ccc(Cl)cc2)[C@H](C(=O)NCc2ccc(CNC(=O)c3ccc(Cl)cc3)cc2)C1 | 84 | 3710 | 1540 | 44
10 | CN1CC[C@@H](c2ccc(Cl)cc2)[C@H](C(=O)NCc2ccc(CNC(=O)/C=C/c3ccc(Cl)cc3)cc2)C1 | 69 | > 2000 | > 2000 | > 29
11 | CN1CC[C@@H](c2ccc(Cl)cc2)[C@H](C(=O)NCc2ccc(CNC(=O)c3ccccc3)cc2)C1 | 30 |  |  | 
12 | CN1CC[C@@H](c2ccc(Cl)cc2)[C@H](C(=O)NCc2ccc(CNC(=O)c3cccc(Cl)c3)cc2)C1 | 33 | > 4000 | 1040 | > 121
